# Laboratory results as given in US7202040B2, “Method for screening compounds which change the binding properties of a protein with a ligand” (Takeda Pharmaceutical Company Limited, priority 2001, dated 2007).
# Columns and labels:
# [1] = system: other receptor expression cells; assay: cAMP production inhibitory activity on other receptor expression cells (specificity check); type: cell-based; details: receptor-specific
# Experimental: The amino acid sequence of GPR34 is known to have low homology to the amino acid sequence of the platelet-activating factor receptor or the uridine diphosphate glycoside. Thus, various compounds including platelet-activating factor and uridine diphosphate glycoside, which are ligands to the receptors showing homology to GPR34, were administered to the GPR34-expressed CHO cells to examine the cAMP production inhibitory activity of these compounds on the GPR34-expressed CHO cells by the method shown in (1-4) described above.
# The effect was not noted on the other receptor expression cells but was receptor-specific.
# [2] = molecular target: T1, GPR34-expressed CHO cells (Homo sapiens, UniProt Q9UPC5); assay: Intracellular cAMP production inhibitory activity using GPR34-expressed CHO cells (forskolin-stimulated, cAMP EIA); type: cell-based; details: 2 μM forskolin, FIG. 1
# T1 construct: expressed in transfected cells
# T1 sequence (Q9UPC5 whole entry): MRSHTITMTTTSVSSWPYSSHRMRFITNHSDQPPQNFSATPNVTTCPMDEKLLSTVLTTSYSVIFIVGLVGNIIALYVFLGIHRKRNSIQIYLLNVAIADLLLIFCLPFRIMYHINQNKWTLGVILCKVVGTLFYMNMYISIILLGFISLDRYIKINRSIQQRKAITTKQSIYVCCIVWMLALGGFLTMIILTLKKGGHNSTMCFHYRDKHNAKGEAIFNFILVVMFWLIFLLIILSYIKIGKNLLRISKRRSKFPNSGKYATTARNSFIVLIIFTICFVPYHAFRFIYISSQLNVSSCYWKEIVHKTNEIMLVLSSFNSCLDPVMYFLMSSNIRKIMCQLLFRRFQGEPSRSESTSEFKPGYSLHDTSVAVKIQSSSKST
# Experimental: The GPR34-expressed CHO cells prepared in (1-2) described above and selected in (1-2) described above were plated on a 24-well plate in 6×10^4 cells/well followed by incubation for 48 hours. The cells were washed with αMEM medium (pH 7.5) containing 0.2 mM 3-isobutyl-methylxanthine, 0.05% BSA and 20 mM HEPES (hereinafter αMEM medium (pH 7.5) containing 0.2 mM 3-isobutyl-methylxanthine, 0.05% BSA and 20 mM HEPES is referred to as the reaction buffer). Thereafter, 0.5 mL of the reaction buffer was added and the mixture was kept warm for 30 minutes in an incubator. The reaction buffer was removed and 0.25 mL of fresh reaction buffer was replenished to the cells. Then, 0.25 mL of the reaction buffer containing a sample and 2 μM forskolin was added to the cells, followed by reacting at 37° C. for 30 minutes. […] The cAMP level in the extract was quantified using the same kit. Based on this measurement data, the cAMP production inhibitory activity was calculated based on the equation shown below and expressed in terms of percentage to the control group. The activity in the group added with sample was calculated using each control value set on the same plate. % of control=(X−C)/(T−C)×100 wherein • X: cAMP level in the group added with sample • T: mean value of the cAMP levels in 3 wells of the groups without sample addition and with forskolin stimulation […]
Substance,cAMP production inhibitory effect on other receptor expression cells [1],cAMP production inhibitory activity ([2]; 37° C. 30 minutes),cAMP production inhibitory activity ([2]; in a higher concentration)
lysophosphatidylserine,not noted,marked activities,
phosphatidylserine,not noted,,marked activities
